Test results taken from paper PMC7734590, “Identification of a Selective RelA Inhibitor Based on DSE-FRET Screening Methods” (International Journal of Molecular Sciences, 2020).
Counter-ions that a name gives are not always drawn. Like-named read-outs stand apart in the source and are kept apart here.

Legend:
RelA = RelA (Homo sapiens, UniProt Q04206); experiment: DSE-FRET RelA–DNA binding inhibition; assay type: biochemical; parameters: Kinetic assay RelA Inhibition % ΔRFU(60 min-0 min) / RelA HTS % Inhibition / RelA Retest % Inhibition Run1 / RelA Retest % Inhibition Run2 / RelA Retest % Inhibition Avg. / Kinetic assay RelA % Inhibition ΔRFU(60 min-0 min): dose or concentration left out as unconfirmed
RelA, sequence (Q04206 19-306 limits assumed): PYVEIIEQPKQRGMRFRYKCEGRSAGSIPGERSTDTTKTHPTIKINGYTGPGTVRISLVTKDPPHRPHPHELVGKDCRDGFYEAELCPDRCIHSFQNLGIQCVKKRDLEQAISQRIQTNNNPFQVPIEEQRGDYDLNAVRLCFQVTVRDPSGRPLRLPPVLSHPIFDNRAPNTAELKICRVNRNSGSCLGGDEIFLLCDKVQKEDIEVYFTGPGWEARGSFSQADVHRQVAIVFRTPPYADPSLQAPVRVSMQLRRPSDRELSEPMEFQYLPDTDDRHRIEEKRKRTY

p52 = biological target: T1, p52 (Homo sapiens, UniProt Q00653); experiment: DSE-FRET p52–DNA binding inhibition; assay type: biochemical; parameters: p52 Retest % Inhibition Run2 / p52 Retest % Inhibition Avg. / Kinetic assay p52 Inhibition % ΔRFU(60 min-0 min) / p52 HTS % Inhibition / p52 Retest % Inhibition Run1: dose or concentration left out as unconfirmed
T1 sequence (Q00653 1-454 limits assumed): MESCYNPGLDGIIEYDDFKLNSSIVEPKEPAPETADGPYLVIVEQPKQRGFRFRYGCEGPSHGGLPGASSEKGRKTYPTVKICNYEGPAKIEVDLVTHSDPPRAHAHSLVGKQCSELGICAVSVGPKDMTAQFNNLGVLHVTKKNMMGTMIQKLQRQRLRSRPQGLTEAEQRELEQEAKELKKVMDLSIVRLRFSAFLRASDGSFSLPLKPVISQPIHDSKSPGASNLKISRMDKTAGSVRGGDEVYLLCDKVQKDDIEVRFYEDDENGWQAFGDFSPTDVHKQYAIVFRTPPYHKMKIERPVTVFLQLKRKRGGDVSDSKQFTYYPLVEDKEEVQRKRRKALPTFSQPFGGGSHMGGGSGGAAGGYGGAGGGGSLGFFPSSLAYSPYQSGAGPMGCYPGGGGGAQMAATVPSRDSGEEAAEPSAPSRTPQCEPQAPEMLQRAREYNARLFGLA
Method: Plate-based (384 scale) DNA-binding experiments were carried out with 0.1 µL of 2 mM or 1 mg/mL compound, 2 µL of 80 nM NF-D1 (consisting of NF-01F and NF-14D), 1 µL of 20 ng/µL poly dI-dC, and 6.9 µL of 3.2 pmol protein in binding buffer (10 mM 4-(2-hydroxyethyl)-1-piperazineethanesulfonic acid (HEPES)–NaOH pH 7.9, 50 mM KCl, 0.1 mM ethylenediaminetetraacetic acid (EDTA), 2.5 mM dithiothreitol (DTT), 10% glycerol, and 0.05% Nonidet P40). The plates were incubated for 30 min at room temperature, after which 10 µL of NF-D2 (consisting of NF-02 and NF-13) was added. The plates were centrifuged at 1000 rpm for 30 s, followed by shaking for 30 s using a plate shaker (Biotec). Fluorescence was measured at 528 nm, after excitation at 485 nm, using a multiplate reader (Biotec) over a period of 60 min.

[1] = HTS, 5 µg/mL, NPDepo hits, read-out: RelA HTS % Inhibition @ 5 µg/mL
[2] = Retest Run1, 5 µg/mL, read-out: RelA Retest % Inhibition @ 5 µg/mL Run1
[3] = Retest Run2, 5 µg/mL, read-out: RelA Retest % Inhibition @ 5 µg/mL Run2
[4] = Retest average of Run1 and Run2, 5 µg/mL, read-out: RelA Retest % Inhibition @ 5 µg/mL Avg.
[5] = kinetic assay, 5 µg/mL, ΔRFU 60 min-0 min, read-out: Kinetic assay @ 5 µg/mL RelA Inhibition % ΔRFU(60 min-0 min)
[6] = HTS, 5 µg/mL, NPDepo hits, read-out: p52 HTS % Inhibition @ 5 µg/mL
[7] = Retest Run1, 5 µg/mL, read-out: p52 Retest % Inhibition @ 5 µg/mL Run1
[8] = Retest Run2, 5 µg/mL, read-out: p52 Retest % Inhibition @ 5 µg/mL Run2
[9] = Retest average of Run1 and Run2, 5 µg/mL, read-out: p52 Retest % Inhibition @ 5 µg/mL Avg.
[10] = kinetic assay, 5 µg/mL, ΔRFU 60 min-0 min, read-out: Kinetic assay @ 5 µg/mL p52 Inhibition % ΔRFU(60 min-0 min)
[11] = HTS, known drugs, 10 µM, read-out: RelA HTS % Inhibition @ 10 µM
[12] = kinetic assay, 60 min-0 min, 10 µM, read-out: Kinetic assay @ 10 µM RelA % Inhibition ΔRFU(60 min-0 min)
[13] = retest of known drugs, 1 = judged hit
[14] = retest, Run1, 10 µM, read-out: RelA Retest % Inhibition @ 10 µM Run1
[15] = retest, Run2, 10 µM, read-out: RelA Retest % Inhibition @ 10 µM Run2
[16] = retest, average of Run1 and Run2, 10 µM, read-out: RelA Retest % Inhibition @ 10 µM Avg.
[17] = HTS, known drugs, 10 µM, read-out: p52 HTS % Inhibition @ 10 µM
[18] = kinetic assay, 60 min-0 min, 10 µM, read-out: Kinetic assay @ 10 µM p52 % Inhibition ΔRFU(60 min-0 min)
[19] = retest, Run1, 10 µM, read-out: p52 Retest % Inhibition @ 10 µM Run1
[20] = retest, Run2, 10 µM, read-out: p52 Retest % Inhibition @ 10 µM Run2
[21] = retest, average of Run1 and Run2, 10 µM, read-out: p52 Retest % Inhibition @ 10 µM Avg.
[22] = Retest average of Run1 and Run2
[23] = kinetic assay, ΔRFU 60 min-0 min

Compound	inhibition at 10 µM (RelA; [11]) [%]	inhibition at 10 µM (RelA; [12]) [%]	inhibition at 10 µM (RelA; [14]) [%]	inhibition at 10 µM (RelA; [15]) [%]	inhibition at 10 µM (RelA; [16]) [%]	inhibition at 10 µM (p52; [17]) [%]	inhibition at 10 µM (p52; [18]) [%]	inhibition at 10 µM (p52; [19]) [%]	inhibition at 10 µM (p52; [20]) [%]	inhibition at 10 µM (p52; [21]) [%]	Kinetic assay RelA % Inhibition ΔRFU(60 min-0 min) (RelA; kinetic assay, 60 min-0 min) [%]	Kinetic assay p52 % Inhibition ΔRFU(60 min-0 min) (p52; kinetic assay, 60 min-0 min) [%]	further results
Cc1cc(-c2ccc(/N=N/c3c(S(=O)(=O)O)cc4cc(S(=O)(=O)O)cc(N)c4c3O)c(C)c2)ccc1/N=N/c1c(S(=O)(=O)O)cc2cc(S(=O)(=O)O)cc(N)c2c1O [Trypan blue]													Hit Judgement of: RelA (RelA; 1 = judged hit after retest): 1; inhibition at 5 µg/mL (RelA; [1]): 54.8%; inhibition at 5 µg/mL (RelA; [2]): 62%; inhibition at 5 µg/mL (RelA; [3]): 69%; inhibition at 5 µg/mL (RelA; [4]): 65.5%; inhibition at 5 µg/mL (RelA; [5]): 26%; Hit Judgement of: p52 (p52; 1 = judged hit after retest): 1; inhibition at 5 µg/mL (p52; [6]): 2.8%; inhibition at 5 µg/mL (p52; [7]): 15.1%; inhibition at 5 µg/mL (p52; [8]): 16.4%; inhibition at 5 µg/mL (p52; [9]): 15.8%; inhibition at 5 µg/mL (p52; [10]): 7%
CC(C)(O/N=C(\C(=O)N[C@@H]1C(=O)N2C(C(=O)[O-])=C(C[n+]3ccccc3)CS[C@H]12)c1csc(N)n1)C(=O)O [CEFTAZIDIME]	96.9	94	91.9	106	98.9	98	92	78.9	110	94.2			Hit Judgement of: RelA (RelA; [13]): 1; Hit Judgement of: p52 (p52; [13]): 1
CC(=O)Oc1cccc2c1C(=O)c1c(OC(C)=O)cc(C(=O)O)cc1C2=O [Diacerein]	97.4	4	51.6	57.2	54.4	72.2	3	46.8	54	50.4			
Cc1[nH]c(/C=C2\C(=O)Nc3ccc(S(=O)(=O)Cc4c(Cl)cccc4Cl)cc32)c(C)c1C(=O)N1CCC[C@@H]1CN1CCCC1 [PHA 665752]	101	-27	88.6	99.1	93.9	103	-31	88	99.8	93.9			
COc1ccc2[nH]cc(C3=CCNCC3)c2c1.COc1ccc2[nH]cc(C3=CCNCC3)c2c1.O=C(O)CCC(=O)O [RU 24969 hemisuccinate]											-19	-22	
Nc1ccc2nc3ccc(N)cc3[n+](-c3ccccc3)c2c1.[Cl-] [Phenosafranin]													RelA HTS % Inhibition (RelA; HTS, NPDepo hits): 99.3%; RelA Retest % Inhibition Run1 (RelA; Retest Run1): 77.2%; RelA Retest % Inhibition Run2 (RelA; Retest Run2): 83.4%; RelA Retest % Inhibition Avg. (RelA; [22]): 80.3%; Kinetic assay RelA Inhibition % ΔRFU(60 min-0 min) (RelA; [23]): -12%; p52 HTS % Inhibition (p52; HTS, NPDepo hits): 86.7%; p52 Retest % Inhibition Run1 (p52; Retest Run1): 78.7%; p52 Retest % Inhibition Run2 (p52; Retest Run2): 85.1%; p52 Retest % Inhibition Avg. (p52; [22]): 81.9%; Kinetic assay p52 Inhibition % ΔRFU(60 min-0 min) (p52; [23]): -3.56%
Cn1cc(C2=C(c3ccc(Cl)cc3Cl)C(=O)NC2=O)c2ccccc21 [SB 216763]	146	-12	73.3	82.1	77.7	18.6	-10	64.6	76.1	70.3			
COc1cccc2c1C(=O)c1c(O)c3c(c(O)c1C2=O)C[C@@](O)(C(=O)CO)C[C@@H]3O[C@H]1C[C@H](N)[C@H](O)[C@H](C)O1 [DOXORUBICIN]											-14	-16	
O=C1NC(=O)c2c1c1c3ccccc3[nH]c1c1[nH]c3ccccc3c21 [Arcyriaflavin A]											-3.51	-3.54	
COC(=O)[C@@H]1c2cc3c(c(O)c2[C@@H](O[C@@H]2O[C@@H](C)[C@H](OC)[C@@](C)(OC)[C@H]2OC)C[C@]1(C)O)C(=O)c1c(O)cc2c(c1C3=O)O[C@@H]1O[C@@]2(C)[C@H](O)[C@@H](N(C)C)[C@@H]1O [Nogalamycin]													inhibition at 5 µg/mL (RelA; [1]): 128%; inhibition at 5 µg/mL (RelA; [2]): 138%; inhibition at 5 µg/mL (RelA; [3]): 146%; inhibition at 5 µg/mL (RelA; [4]): 142%; inhibition at 5 µg/mL (RelA; [5]): -20%; inhibition at 5 µg/mL (p52; [6]): 127%; inhibition at 5 µg/mL (p52; [7]): 132%; inhibition at 5 µg/mL (p52; [8]): 145%; inhibition at 5 µg/mL (p52; [9]): 139%; inhibition at 5 µg/mL (p52; [10]): -13%
CC(C)(CO)[C@@H](O)C(=O)NCCCO [DEXPANTHENOL]	242	-4.64	226	246	236	241	-1.23	207	231	219			
Cl[C@H]1[C@H](Cl)[C@@H](Cl)[C@@H](Cl)[C@H](Cl)[C@H]1Cl [LINDANE]	29.3	-1.86	6.1	5.6	5.9	31.4	-1.69	5.5	6.4	5.9			
SN 38											-0.814	-2	
COc1cccc2c1C(=O)c1c(O)c3c(c(O)c1C2=O)C[C@@](O)(C(=O)CO)C[C@@H]3O[C@H]1C[C@H](N)[C@@H](O)[C@H](C)O1 [EPIRUBICIN HYDROCHLORIDE]	82.2	-11	77.3	88.4	82.9	88.4	-11	77.2	88.8	83			
OCCN(CCO)c1nc(N2CCCCC2)c2nc(N(CCO)CCO)nc(N3CCCCC3)c2n1 [DIPYRIDAMOLE]											-1.49	-1.17	
